Converted amounts (≈) assume the structure as drawn.
What was measured:
[1] = system: Escherichia coli (E. coli) BAS849; assay: Antibacterial activity, microbroth dilution MIC (Table 1); assay type: cell-based; conditions: microbroth dilution, super sensitive Gram-negative E. coli BAS849, read-out: MIC, BAS849
How it was run: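 Values are MICs (μg/mL): the smallest drug amount at which macroscopically visible bacterial growth is absent under assay conditions, from a microdilution method in broth.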

[2] = system: Staphylococcus aureus (S. aureus) 29213; assay: as above; assay type: cell-based; conditions: microbroth dilution, Gram-positive S. aureus 29213, read-out: MIC, 29213
How it was run: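 Broth microdilution; endpoint = no macroscopic growth; value = lowest inhibiting concn, μg/mL.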

E. coli 25922 = assay: as above; assay type: cell-based, Escherichia coli; conditions: Escherichia coli; microbroth dilution; control Gram-negative E. coli 25922 strain; read-out: MIC, 25922
How it was run: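 MIC (μg/mL) read as lowest concentration with no macroscopically visible growth; microbroth dilution format. E. coli 25922 served as control Gram-negative strain.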

[3] = system: Pseudomonas aeruginosa (P. aeruginosa) 27853; assay: Antibacterial activity, MIC (Table 5); assay type: cell-based; conditions: P. aeruginosa 27853, read-out: MIC, 27853
How it was run: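 Using a microbroth dilution format, the minimum inhibitory concentration was recorded as the lowest tested concentration that stopped visible bacterial growth, expressed in μg/mL.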

E. coli ELZ4000 = assay: Antibacterial activity, MIC, multi-drug resistant clinical isolate (Table 3); assay type: cell-based; conditions: Escherichia coli, ELZ4000, read-out: MIC ELZ4000
From the text: (§1) The antibacterial activity from a microbroth dilution method may be presented as the minimum inhibitory concentration (MIC in μg/mL). The MIC value is the lowest concentration of drug which prevents macroscopically visible growth under test conditions.
(§2) Antibacterial activity of test compounds against E. coli ELZ4000 and E. coli ELZ4251 multi-drug resistant clinical isolates is shown in Table 3.

E. coli ELZ4251 = assay: as above; assay type: cell-based; conditions: Escherichia coli
From the text: as §1, §2

E. coli LZ3111 = assay: Antibacterial activity, MIC, quinolone resistant strain (Table 2); assay type: cell-based; conditions: Escherichia coli, LZ3111, read-out: MIC LZ3111
How it was run: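 Growth inhibition assessed by serial drug dilution in broth; endpoint was absence of macroscopically visible growth, reported as MIC, μg/mL.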

[4] = system: Acinetobacter baumannii (A. baumannii) BAA747; assay: Antibacterial activity, MIC (Table 4); assay type: cell-based; conditions: A. baumannii BAA747, read-out: MIC, BAA747
How it was run: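 Values are minimum inhibitory concentrations in μg/mL from broth microdilution, meaning no macroscopically visible growth at that concentration. Resistant MXX isolates are multi-drug resistant clinical strains.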

Structure (SMILES) | MIC [1] [µg/mL] | MIC [2] [µg/mL] | MIC (E. coli 25922) [µg/mL] | MIC [3] [µg/mL] | MIC (E. coli ELZ4000) [µg/mL] | MIC (E. coli ELZ4251) [µg/mL] | MIC (E. coli LZ3111) [µg/mL] | MIC [4] [µg/mL]
CCc1c(-c2ccc3c(c2)cc(CN2C[C@H]4C[C@@H](N(C)Cc5ccccc5)C[C@H]4C2)n3C)[nH]c(=O)c(C(=O)O)c1O [Cpd 288, 6-(2-(((3aR,5r,6aS)-5-(benzyl(methyl)amino)hexahydrocyclopenta[c]pyrrol-2(1H)-yl)methyl)-1-methyl-1H-indol-5-yl)-5-ethyl-4-hydroxy-2-oxo-1,2-dihydropyridine-3-carboxylic acid] | < 1 | 3.5 to 12.5 (≈ 6.31 to 22.5 µM) | 1 to 3.5 (≈ 1.8 to 6.31 µM) | 12.5 to 150 (≈ 22.5 to 270 µM) | 12.5 to 150 (≈ 22.5 to 270 µM) | 12.5 to 150 (≈ 22.5 to 270 µM) | 12.5 to 150 (≈ 22.5 to 270 µM) | 
CCc1c(-c2ccc3c(c2)cc(CN2C[C@H]4C[C@@H](NC)C[C@H]4C2)n3C)[nH]c(=O)c(C(=O)O)c1O [Cpd 289, 5-ethyl-4-hydroxy-6-(1-methyl-2-(((3aR,5r,6aS)-5-(methylamino)hexahydrocyclopenta[c]pyrrol-2(1H)-yl)methyl)-1H-indol-5-yl)-2-oxo-1,2-dihydropyridine-3-carboxylic acid] | 1 to 3.5 (≈ 2.15 to 7.53 µM) | 12.5 to 150 (≈ 26.9 to 323 µM) | 12.5 to 150 (≈ 26.9 to 323 µM) | 12.5 to 150 (≈ 26.9 to 323 µM) | 12.5 to 150 (≈ 26.9 to 323 µM) | 12.5 to 150 (≈ 26.9 to 323 µM) | 3.5 to 12.5 (≈ 7.53 to 26.9 µM) | 12.5 to 150 (≈ 26.9 to 323 µM)
CCc1c(-c2ccc3c(c2)cc(CNCCN(C)C)n3C)[nH]c(=O)c(C(=O)O)c1O [Cpd 302, 6-(2-((2-(dimethylamino)ethylamino)methyl)-1-methyl-1H-indol-5-yl)-5-ethyl-4-hydroxy-2-oxo-1,2-dihydropyridine-3-carboxylic acid] | < 1 | 12.5 to 150 (≈ 30.3 to 364 µM) | 1 to 3.5 (≈ 2.42 to 8.49 µM) | 12.5 to 150 (≈ 30.3 to 364 µM) | 12.5 to 150 (≈ 30.3 to 364 µM) | 3.5 to 12.5 (≈ 8.49 to 30.3 µM) | 3.5 to 12.5 (≈ 8.49 to 30.3 µM) | 3.5 to 12.5 (≈ 8.49 to 30.3 µM)
Cn1c(CN2CCCC2)cc2cc(-c3[nH]c(=O)c(C(=O)O)c(O)c3C3CC3)ccc21 [Cpd 323, 5-cyclopropyl-4-hydroxy-6-(1-methyl-2-(pyrrolidin-1-ylmethyl)-1H-indol-5-yl)-2-oxo-1,2-dihydropyridine-3-carboxylic acid] | 1 to 3.5 (≈ 2.45 to 8.59 µM) | 12.5 to 150 (≈ 30.7 to 368 µM) | 12.5 to 150 (≈ 30.7 to 368 µM) | 12.5 to 150 (≈ 30.7 to 368 µM) | 12.5 to 150 (≈ 30.7 to 368 µM) | 3.5 to 12.5 (≈ 8.59 to 30.7 µM) | 3.5 to 12.5 (≈ 8.59 to 30.7 µM) | 12.5 to 150 (≈ 30.7 to 368 µM)
Cn1c(CN2CCC2)cc2cc(-c3[nH]c(=O)c(C(=O)O)c(O)c3C3CC3)ccc21 [Cpd 324, 6-(2-(azetidin-1-ylmethyl)-1-methyl-1H-indol-5-yl)-5-cyclopropyl-4-hydroxy-2-oxo-1,2-dihydropyridine-3-carboxylic acid] | 1 to 3.5 (≈ 2.54 to 8.9 µM) | 12.5 to 150 (≈ 31.8 to 381 µM) | 12.5 to 150 (≈ 31.8 to 381 µM) | 12.5 to 150 (≈ 31.8 to 381 µM) | 3.5 to 12.5 (≈ 8.9 to 31.8 µM) | 3.5 to 12.5 (≈ 8.9 to 31.8 µM) | 3.5 to 12.5 (≈ 8.9 to 31.8 µM) | 12.5 to 150 (≈ 31.8 to 381 µM)
Cn1c(CNCC2CC2)cc2cc(-c3[nH]c(=O)c(C(=O)O)c(O)c3C3CC3)ccc21 [Cpd 325, 5-cyclopropyl-6-(2-((cyclopropylmethylamino)methyl)-1-methyl-1H-indol-5-yl)-4-hydroxy-2-oxo-1,2-dihydropyridine-3-carboxylic acid] | 3.5 to 12.5 (≈ 8.59 to 30.7 µM) | 12.5 to 150 (≈ 30.7 to 368 µM) | 12.5 to 150 (≈ 30.7 to 368 µM) | 12.5 to 150 (≈ 30.7 to 368 µM) | 3.5 to 12.5 (≈ 8.59 to 30.7 µM) | 1 to 3.5 (≈ 2.45 to 8.59 µM) | 3.5 to 12.5 (≈ 8.59 to 30.7 µM) | 12.5 to 150 (≈ 30.7 to 368 µM)
Cn1c(CN2CCC2)cc2cc(-c3cc(O)c(C(=O)O)c(=O)[nH]3)ccc21 [Cpd 328, 6-(2-(azetidin-1-ylmethyl)-1-methyl-1H-indol-5-yl)-4-hydroxy-2-oxo-1,2-dihydropyridine-3-carboxylic acid] | 3.5 to 12.5 (≈ 9.9 to 35.4 µM) | 12.5 to 150 (≈ 35.4 to 424 µM) | 12.5 to 150 (≈ 35.4 to 424 µM) | 12.5 to 150 (≈ 35.4 to 424 µM) | 12.5 to 150 (≈ 35.4 to 424 µM) | 12.5 to 150 (≈ 35.4 to 424 µM) | 3.5 to 12.5 (≈ 9.9 to 35.4 µM) | 12.5 to 150 (≈ 35.4 to 424 µM)
CCc1c(-c2ccc3c(c2)cc(CN2CCCCC2)n3C)[nH]c(=O)c(C(=O)O)c1N [Cpd 331, 4-amino-5-ethyl-6-(1-methyl-2-(piperidin-1-ylmethyl)-1H-indol-5-yl)-2-oxo-1,2-dihydropyridine-3-carboxylic acid] | < 1 | 12.5 to 150 (≈ 30.6 to 367 µM) | 3.5 to 12.5 (≈ 8.57 to 30.6 µM) | 12.5 to 150 (≈ 30.6 to 367 µM) | 12.5 to 150 (≈ 30.6 to 367 µM) | 12.5 to 150 (≈ 30.6 to 367 µM) | 12.5 to 150 (≈ 30.6 to 367 µM) | 

— patent publication US9409905B2, “Antibacterial compounds and methods for use” (PTC THERAPEUTICS, INC., priority 2011, dated 2016)
